Test results reported in patent US7524679B2, “Methods for culturing human lung mast cells and uses thereof” (Philadelphia, Health and Education Corporation, priority 2001, dated 2009).
One block for each molecule: values may come before it. Ends that are not written are not given here.

How the values were obtained:
human lung mast cells [1] = test: Histamine release assay in cultured human lung mast cells; format: cell-based; details: agent alone on cultured human lung mast cells
Procedure: Release of histamine in response to various stimuli was also examined.
Mast cells (10-50×10^3/tube) in PAGCM were preincubated at 37° C. then challenged with buffer or anti-FcεRI in doubling dilutions. In experiments examining the effects of beta-agonist and purinergic agonists, agents were added to cells at 37° C. for 15 minutes prior to FcεRI-mediated challenge. Twenty minutes following challenge, cells were rapidly pelleted and supernatants removed for histamine analysis. Histamine release was expressed as the net histamine released divided by the total histamine content ×100%. The total cellular histamine content was determined following cell lysis with 2% perchloric acid. […] Histamine measurements were performed using the automated spectrofluorometric method of Technicon (Tarrytown, N.Y.). […] All assays were run in duplicates.

[2] = tested on: cord-blood precursor-derived mast cells; details: cited from earlier work
[3] = tested on: freshly isolated human lung mast cells; details: cited from earlier work
[4] = tested on: human lung mast cell cultures; test: Beta-receptor responsiveness: inhibition of histamine release; format: cell-based; details: cultured human lung mast cells, agents added 15 minutes prior to FcεRI-mediated challenge
Procedure: Beta-receptor responsiveness of human lung mast cell cultures of the present invention were also examined using the prototype agonist, isoproterenol, as well as with the long-acting beta agonist, salmeterol.
Mast cells (10-50×10^3/tube) in PAGCM were preincubated at 37° C. then challenged with buffer or anti-FcεRI in doubling dilutions. In experiments examining the effects of beta-agonist and purinergic agonists, agents were added to cells at 37° C. for 15 minutes prior to FcεRI-mediated challenge. Twenty minutes following challenge, cells were rapidly pelleted and supernatants removed for histamine analysis. Histamine release was expressed as the net histamine released divided by the total histamine content ×100%. The total cellular histamine content was determined following cell lysis with 2% perchloric acid. Spontaneous histamine release was always <2% of cellular histamine and generally <1%. Histamine measurements were performed using the automated spectrofluorometric method of Technicon (Tarrytown, N.Y.). Variations between replicates were consistently <5%. All assays were run in duplicates.

human lung mast cells [5] = test: Proliferation assay using 3H-thymidine uptake; format: cell-based; details: for effect on proliferation when added to medium containing stem cell factor and interleukin-4: added on top of stem cell factor and interleukin-4
Procedure: Uptake of ^3H-thymidine was also monitored as a measure of survival and proliferation of human lung mast cell cultures of the present invention in the presence of different cytokine growth factors. In these experiments, ^3H-thymidine was added to human lung mast cell aliquots from three individuals at 5 through 7 weeks of culture. […] In the absence of stem cell factor, cells died within 3-5 days. Medium with stem cell factor alone produced a 60% increase in uptake. Medium to which stem cell factor and interleukin-4 were added produced a greater than 4-fold increase in proliferation versus stem cell factor alone.
At days 35-49, when cultures contained >95-99% mast cells, 2×10^4 mast cells in 50 μl culture medium were placed in triplicate in 96 well flat-bottomed plates and ^3H-thymidine (0.5 μCi/50 μl/well) added. After four days, cells were harvested on a glass fiber filter, washed ×3, and radioactive uptake was evaluated by a beta counter. Since the cultures contained virtually homogeneous populations, the counts reflected mast cell proliferation and not that of cellular contaminants. The results were expressed as the percent increase in radioactivity over mast cell cultured in medium alone.

[6] = tested on: mast cells from CD34 positive precursor stem cells; details: added to precursor-derived mast cell culture system; cited from earlier work

Molecule: CNc1ccc2oc(C[C@H]3O[C@@]4(CC[C@H]3C)O[C@H]([C@H](C)C(=O)c3ccc[nH]3)[C@H](C)C[C@H]4C)nc2c1C(=O)O [A23187]
histamine release, in words (human lung mast cells [1]): in similar fashion to freshly isolated human lung mast cells

Molecule: Nc1ncnc2c1ncn2[C@@H]1O[C@H](COP(=O)(O)OP(=O)(O)OP(=O)(O)O)[C@@H](O)[C@H]1O [ATP]
histamine release, in words (human lung mast cells [1]): neither ATP nor UTP alone triggered appreciable histamine release

Molecule: Nc1ncnc2c1ncn2[C@@H]1O[C@H](CO)[C@@H](O)[C@H]1O [Adenosine, adenosine]
effect on IgE-mediated histamine release [2]: inhibits IgE-mediated histamine release | effect on anti-IgE-induced histamine release [3]: enhancement of anti-IgE-induced release

Molecule: O=c1ccn([C@@H]2O[C@H](COP(=O)(O)OP(=O)(O)OP(=O)(O)O)[C@@H](O)[C@H]2O)c(=O)[nH]1 [UTP, uridine 5′ triphosphate]
histamine release, in words (human lung mast cells [1]): neither ATP nor UTP alone triggered appreciable histamine release

IC50 [4]: 0.09 nM
Molecule: CC(C)NCC(O)c1ccc(O)c(O)c1 (stereo not shown) [isoproterenol]

IC50 [4]: 0.1 nM
Molecule: OCc1cc(C(O)CNCCCCCCOCCCCc2ccccc2)ccc1O (stereo not shown) [salmeterol]

Molecule: interferon-y: cytokine added to culture medium containing stem cell factor and interleukin-4
effect on proliferation when added to medium containing stem cell factor and interleukin-4 (human lung mast cells [5]): marked reduction in proliferation

Molecule: interleukin-9: cytokine growth factor
effect on proliferation when added to medium containing stem cell factor and interleukin-4 (human lung mast cells [5]): even greater enhancement in proliferation

Molecule: stem cell factor: cytokine growth factor added to the culture medium
increase in 3H-thymidine uptake (human lung mast cells [5]; medium with stem cell factor alone, over medium alone): 60%

Molecule: substance P (RPKPQQFFGLM; ends and bridges not checked; UniProt P20366 58-68, looked up)
histamine release, in words (human lung mast cells [1]): failed to provoke histamine release

B1: interleukin-4: cytokine growth factor; the cytokine that most defines allergic immunity (protein, UniProt P05112 25-153, looked up)
Interleukin-4: HKCDITLQEIIKTLNSLTEQKTLCTELTVTDIFAASKNTTEKETFCRAATVLRQFYSHHEKDTRCLGATAQQFHRHKQLIRFLKRLDRNLWGLAGLNSCPVKEANQSTLENFLERLKTIMREKYSKCSS
proliferation (3H-thymidine uptake) (human lung mast cells [5]; interleukin-4 added in the absence of stem cell factor, 5 through 7 weeks of culture): no proliferation in excess of that seen in culture medium alone | programmed cell death (apoptosis) [6]: induces programmed cell death (apoptosis)
